In this experiment the target is Histamine H3 receptor (Rattus norvegicus, UniProt Q9QYN8). The experiment is described as follows: Histamine H3 receptor affinity of compound was determined in rat cortical membranes using the H3 selective agonist ligand, [3H]N-alpha-methylhistamine. It is filed as cell membranes, Membrane.
Chain of Histamine H3 receptor (Q9QYN8 whole entry): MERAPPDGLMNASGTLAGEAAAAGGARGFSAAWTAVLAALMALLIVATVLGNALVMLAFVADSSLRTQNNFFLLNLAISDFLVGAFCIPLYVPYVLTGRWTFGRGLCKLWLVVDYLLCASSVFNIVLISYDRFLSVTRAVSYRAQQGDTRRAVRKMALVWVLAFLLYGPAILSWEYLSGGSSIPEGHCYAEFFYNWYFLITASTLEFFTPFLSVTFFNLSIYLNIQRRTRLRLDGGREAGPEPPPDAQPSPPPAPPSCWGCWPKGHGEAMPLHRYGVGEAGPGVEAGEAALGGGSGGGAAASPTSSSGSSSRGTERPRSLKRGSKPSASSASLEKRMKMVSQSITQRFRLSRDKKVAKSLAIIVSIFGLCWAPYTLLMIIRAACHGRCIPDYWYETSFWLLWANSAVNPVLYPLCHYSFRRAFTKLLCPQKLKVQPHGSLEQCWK

A word on the Ki: it is the dissociation constant of the complex between target and ligand, obtained from inhibition or displacement. A higher Ki goes with lower affinity. For the molecule `Ic1ccc(COCCCc2c[nH]cn2)cc1` [IODOPROXYFAN], the Ki is 0.3 nM.

Source of the values: ChEMBL document CHEMBL1129806, “Diastereoselective synthesis of trans-2-(1-triphenylmethyl-1H-imidazol-4-yl)cyclopropanecarboxylic acids: key intermediates for the preparation of potent and chiral histamine H3 receptor agents” (Bioorg Med Chem Lett, 1997).
